The test system of data set [1] is MCF7. Put plainly: Cytotoxicity against human MCF7 cells at 4 ug/ml after 48 hrs by sulforhodamine B assay relative to control. Type of data set: functional.
Data set [2] relates to NCI-H460. Put plainly: Cytotoxicity against human NCI-H460 cells at 4 ug/ml after 48 hrs by sulforhodamine B assay relative to control. Type of data set: functional. A general note: The SRB assay estimates cell density from bound dye.
Data set [3] relates to SF-268. Put plainly: Cytotoxicity against human SF268 cells at 4 ug/ml after 48 hrs by sulforhodamine B assay relative to control. Type of data set: functional.
Data set [4] relates to MCF7. Put plainly: Cytotoxicity against human MCF7 cells after 72 hrs by XTT assay. Type of data set: functional. The following applies: MCF7, 72 h. For orientation: Formazan colour is commonly taken as a measure of viable cells.
The subject of data set [5] is NCI-H460. In words: Cytotoxicity against human NCI-H460 cells after 72 hrs by XTT assay. Type of data set: functional. The settings on record: NCI-H460, 72 h.
Data set [6] deals with SF-268. Put plainly: Cytotoxicity against human SF268 cells after 72 hrs by XTT assay. The class given is functional. The settings on record: SF-268, 72 h.
Data set [7] is described as follows: Cytotoxicity against human Detroit 551 cells after 72 hrs by XTT assay. The class given is cell-based.
Data set [8] relates to MCF7. In words: Selectivity index, ratio of GI50 for human Detroit 551 cells to GI50 for human MCF7 cells. The class given is functional.
Data set [9] relates to NCI-H460. In words: Selectivity index, ratio of GI50 for human Detroit 551 cells to GI50 for human NCI-H460 cells. Type of data set: functional.
The subject of data set [10] is SF-268. In words: Selectivity index, ratio of GI50 for human Detroit 551 cells to GI50 for human SF268 cells. Type of data set: functional.
Data set [11] deals with K562. Put plainly: Cytotoxicity against human K562 cells after 72 hrs by XTT assay. The class given is functional. The following applies: K562, 72 h.
Data set [12] has as its system K562. Put plainly: Selectivity index, ratio of GI50 for human Detroit 551 cells to GI50 for human K562 cells. The class given is functional.
Data set [13] relates to K562. In words: Cell cycle arrest in human K562 cells assessed as accumulation at G0/G1 phase at 1 uM after 24 hrs using propidium iodide staining by flow cytometry. The class given is functional.
Data set [14] relates to K562. Put plainly: Cell cycle arrest in human K562 cells assessed as accumulation at S phase at 1 uM after 24 hrs using propidium iodide staining by flow cytometry. The class given is functional. For orientation: A flow cytometer gives signals particle by particle.
For data set [15], the system named is K562. Put plainly: Cell cycle arrest in human K562 cells assessed as accumulation at G2/M phase at 1 uM after 24 hrs using propidium iodide staining by flow cytometry. Type of data set: functional.
In data set [16] the test system is K562. Put plainly: Cell cycle arrest in human K562 cells assessed as accumulation at Sub-G1 phase at 1 uM after 24 hrs using propidium iodide staining by flow cytometry. The class given is functional.
Data set [17] has as its system K562. Put plainly: Induction of apoptosis in human K562 cells assessed as morphological changes at 1 to 10 uM after 48 hrs using DAPI staining by fluorescent microscopic analysis. Type of data set: functional, cell-based.
The test system of data set [18] is K562. Put plainly: Induction of apoptosis in human K562 cells assessed as formation of fragmented DNA at 1 to 10 uM after 48 hrs using ethidium bromide staining by agarose gel electrophoresis. The class given is functional, cell-based.
The test system of data set [19] is K562. In words: Induction of apoptosis in human K562 cells assessed as activation of caspase-3 activity after 48 hrs by immunoblot analysis. Type of data set: functional, cell-based.
In data set [20] the test system is K562. Put plainly: Induction of apoptosis in human K562 cells assessed as PARP cleavage after 48 hrs by immunoblot analysis. The class given is functional, cell-based.

Each structure is given as a SMILES string. Active and inactive are the calls of the source. The rule behind the calls is not given here. Where only a bound is given, the exact number is not on record here.

In general, GI50 refers to the concentration that inhibits growth by half.

On to `CO/N=C1/c2ccccc2C(=O)c2occc21`, for which the Activity in the data set on MCF7 [1] was 36%; in the data set on NCI-H460 [2] it was 4%; in the data set on SF-268 [3], 22%; with K562 [13], 26.1%; in the data set on K562 [14], 35.7%; in the data set with K562 [15], 38.2%. For the same compound, the Activity is 4.8% in the data set on K562 [16], “Dose-dependent effect” in the data set on K562 [19] and “Dose-dependent effect” in the data set with K562 [20]. Besides, the GI50 in the data set with MCF7 [4] turned out to be 10.2 µM; in the data set with NCI-H460 [5], 6.76 µM; in the data set with SF-268 [6], 16.5 µM; in the data set on K562 [11], 0.6 µM. This compound had a GI50 at 72 h in data set [7] above 100 µM. Besides, the RatioGI50 is listed as above 9.85 in the data set on MCF7 [8], above 14.79 with NCI-H460 [9], above 6.05 in the data set on SF-268 [10] and above 166.67 in the data set with K562 [12]. The result in the data set on K562 [17] and in the data set with K562 [18] was Active.
On to `O=C1c2ccccc2/C(=N/O)c2ccoc21`, for which the Activity in the data set with MCF7 [1] is given as 10%; in the data set on NCI-H460 [2], 5%; in the data set on SF-268 [3] it was 16%; in the data set with K562 [13], 37.7%; in the data set with K562 [14], 4.4%; in the data set with K562 [15], 58%. Also, the Activity in the data set on K562 [16] is 4.41%. Besides, the GI50 with MCF7 [4] worked out at 12.3 µM; in the data set on NCI-H460 [5] it was 7.71 µM; in the data set with SF-268 [6], 8.85 µM; with K562 [11] it was 0.82 µM. The GI50 at 72 h in data set [7] was above 100 µM. The RatioGI50 in the data set with MCF7 [8] is above 8.13; in the data set on NCI-H460 [9], above 12.97; in the data set on SF-268 [10] it was above 11.3; with K562 [12], above 121.95.
For `O=C1C(=O)c2ccoc2-c2ccccc21`, the Activity with MCF7 [1] was 0%; in the data set on NCI-H460 [2], -1%; in the data set with SF-268 [3], 0%; in the data set on K562 [13] it was 36.1%; in the data set on K562 [14] it was 51.2%; with K562 [15], 12.7%. Further, the Activity with K562 [16] is listed as 3.75%. Further, the GI50 was determined as 6.42 µM in the data set with MCF7 [4], 6.38 µM in the data set with NCI-H460 [5], 6.38 µM in the data set with SF-268 [6] and 0.64 µM in the data set on K562 [11]. Further, in data set [7], it took 5.77 µM to inhibit growth by half (GI50 at 72 h). For the same compound, the RatioGI50 in the data set on MCF7 [8] came out at 0.9; in the data set with NCI-H460 [9], 0.9; with SF-268 [10], 0.9; with K562 [12], 9.02.
